{"source": "ChEMBL document CHEMBL3832551", "about": "“DailyMed|setid=dd39c559-5c5d-4d3b-9228-c44085e1699f | FELODIPINE - felodipine tablet, film coated, extended release|Aurobindo Pharma Limited”", "assay_type_in_all_cases": "ADME, organism-based", "key": {"[1]": {"test": "(§1) Evaluation of pharmacokinetic parameters for Felodipine following multiple oral administration of Felodipine immediate-release tablets", "parameters": "dose 10 mg, route oral", "conditions": "human, in vivo, 10 mg, dosed compound id 10, dosed compound name FELODIPINE, gender male and female, regimen Once daily, tissue Plasma"}, "Homo sapiens [2]": {"tested_on": "Homo sapiens", "test": "as §1", "parameters": "dose 10 mg, route oral", "conditions": "in vivo, dose 10 mg, dosed compound id 10, dosed compound name FELODIPINE, gender male and female, regimen Once daily, route oral, tissue Plasma"}, "[3]": {"test": "(§2) Evaluation of pharmacokinetic parameters for Felodipine following single oral administration of Felodipine immediate or extended-release tablets", "parameters": "dose 10 mg, dose 20 mg, route oral", "conditions": "human, in vivo; dosed compound id 10, dosed compound name FELODIPINE, regimen Single dose, route oral, tissue Plasma"}, "Homo sapiens [4]": {"tested_on": "Homo sapiens", "test": "as §2", "parameters": "dose 10 mg, dose 20 mg, route oral", "conditions": "in vivo, po, dosed compound id 10, dosed compound name FELODIPINE, regimen Single dose, tissue Plasma"}}, "data": [{"smiles": "CCOC(=O)C1=C(C)NC(C)=C(C(=O)OC)C1c1cccc(Cl)c1Cl", "note": "(stereo not drawn) [FELODIPINE]", "values": [{"measurement": "Cmax", "setting": "[1]", "value": 20, "unit": "nM"}, {"measurement": "Cmin ss", "setting": "Homo sapiens [2]", "value": 0.5, "unit": "nM"}, {"measurement": "Tmax", "setting": "[3]", "value": "2.5 to 5", "unit": "h"}, {"measurement": "bioavailability", "setting": "[3]", "value": 5, "unit": "%"}, {"measurement": "Cmin ss", "setting": "Homo sapiens [4]; dose 10 mg, gender young male and female", "value": 2, "unit": "nM"}, {"measurement": "Cmin ss", "setting": "Homo sapiens [4]; dose 20 mg, gender male and female", "value": 7, "unit": "nM"}, {"measurement": "Cmax", "setting": "Homo sapiens [4]; gender male and female", "value": 23, "unit": "nM"}, {"measurement": "Cmax", "setting": "Homo sapiens [4]; gender young male and female", "value": 7, "unit": "nM"}]}]}
